Assay [1] relates to Dahl salt-sensitive (SS/Jr) rats. As to the kind of experiment: Telemetric arterial blood pressure monitoring in Dahl salt-sensitive rats on high salt diet. Type of assay: in vivo, rat. To be noted: for anti-hypertensive activity: found by the methods described herein. How it is done: (§1) Male Dahl salt-resistant (SR/Jr) rats (250-300 gm, Harlan, Indianapolis, Ind.) were used as controls. Non-salt-sensitive, spontaneously hypertensive rats (SHR) were also employed in some experiments. Each rat was housed individually with a 12 hour light/12 hour dark cycle. The animal use protocols were approved by the Chicago—West Side Veterans Administration Institutional Animal Care and Use Committee.
(§2) Arterial blood pressures in unrestrained rats were monitored using a model TA11PA-C20 (Data Science, International, St. Paul, Minn.) implantable telemetric blood pressure monitoring system. The rats were anesthetized using an intraperitoneal injection (50 mg/kg i.p.) of nembutol sodium solution prior to implantation of the monitor. The radio-transmitter catheter was inserted via a midline abdominal incision into the left femoral artery and sutured in place after the tip of the catheter was advanced into the proximal aorta. The catheter was tunneled under the skin and the body of the transmitter was positioned in a subcutaneous pocket near the right flank of the rat. Data acquisition began after normal diurnal blood pressure variability had been reestablished, typically about seven days after surgery. Continuous measurements of pulsatile central aortic blood pressure were recorded by a receiver placed under each rat's cage.
A baseline arterial blood pressure was established for each rat from continuous measurements made over a two day period prior to the start of an experiment. […] Monitoring continued for four additional days. […] The p-value in both cases is less than 0.05.

For assay [2], the system named is spontaneously hypertensive rats (SHR). As to the kind of experiment: Telemetric arterial blood pressure monitoring in spontaneously hypertensive rats on 8% NaCl diet. Type of assay: in vivo, rat. As to conditions: single IP injection 10 mg/kg, continuous telemetric recording. How it is done: as §1
as §2, with “cage. […]” for “cage.”

The next assay deals with dogs. As to conditions: administration of rolipram, increased cAMP; cited from earlier work.

Molecules are shown by their SMILES.

Regarding `O=c1c2cccnc2n(-c2cccc([N+](=O)[O-])c2)c(=O)n1Cc1ccncc1` [RS25344], the anti-hypertensive activity result in assay [1] was “exhibit anti-hypertensive activity”.

With `CCn1c(=O)c2ccccc2n(-c2cccc([N+](=O)[O-])c2)c1=O` [TVX2706], the anti-hypertensive activity result in assay [1] is “exhibit anti-hypertensive activity”.

Regarding `COc1ccc(C2CNC(=O)C2)cc1OC1CCCC1` (stereo not drawn) [rolipram, Rolipram], the “effect on arterial blood pressure” value in assay [2] is “brief, shallow dip in blood pressure immediately after rolipram injection followed by a gradual decline and recovery of blood pressure”; in assay [1] (Dahl SS/Jr rat, 8% NaCl diet, single IP injection 10 mg/kg, continuous telemetric recording), “very significant and prolonged (>2 days) drop in blood pressure”. For the same compound, in assay [1] (Dahl SS/Jr rat, 8% NaCl diet, single IP injection 10 mg/kg), the “duration of drop in blood pressure” value is above 2 days. In addition, in assay [1], the anti-hypertensive activity result is recorded as “exhibit anti-hypertensive activity”. Further, the renal vascular resistance entry in the assay with dogs is reported as “reduces renal vascular resistance”. In addition, in the assay on dogs, the secretion of electrolytes entry was “promotes secretion of electrolytes”.

Regarding `COc1ccc(C(=O)Nc2c(Cl)cncc2Cl)cc1OC1CCCC1` [RP73401], the anti-hypertensive activity entry in assay [1] is given as “exhibit anti-hypertensive activity”.
